Counter-ions that a name gives are not always drawn.

Experimental findings from US8124359B2, “Use of additives for the reduction of non-specific binding in assays” (Aokin AG, priority 2006, dated 2012) are described below.

Assay [1] deals with anti-thyroxine. As to the kind of experiment: Velocity of the reaction between F-thyroxine and anti-thyroxine in the presence of BSA (Examples 8-16). The class given is binding. To be noted: BSA 0.1 μM, increasing additive concentrations. As for the experimental part: (§1) The buffer and stock solutions described in Example 1 and the measurement methodology described in Example 2 were used.
• Fluorescein-Thyroxine, 1 nM • Anti-Thyroxine (1:300) • PBS with 5% 2-propanol • BSA 0.1 μM • Sodium benzoate in different concentrations
• Fluorescein-Thyroxine, 1 nM • Anti-Thyroxine (1:300) • PBS with 5% 2-propanol • BSA 0.1 μM • Sodium p-toluene sulfonate in different concentrations
• Fluorescein-Thyroxine, 1 nM • Anti-Thyroxine (1:300) • PBS with 4.75% 2-propanol • BSA 0.1 μM • Potassium benzoate in different concentrations
• Fluorescein-Thyroxine, 1 nM • Anti-Thyroxine (1:300) • PBS with 4.75% 2-propanol • BSA 0.1 μM • Sodium chloroacetate in different concentrations
• Fluorescein-Thyroxine, 1 nM • Anti-Thyroxine (1:300) • PBS with 4.75% 2-propanol • BSA 0.1 μM • Sodium dichloroacetate in different concentrations
[…]. The buffer and stock solutions described in Example 1 and the measurement methodology described in Example 2 were used.
• Fluorescein-Thyroxine, 1.5 nM • Anti-Thyroxine (1:300) • PBS with 4.75% 2-propanol • BSA 0.1 μM • Sodium Salicylate in different concentrations
• Fluorescein-Thyroxine, 1.5 nM • Anti-Thyroxine (1:300) • PBS with 4.75% 2-propanol • BSA 0.1 μM • N-Hydroxysuccinimide in different concentrations
• Fluorescein-Thyroxine, 1.5 nM • Anti-Thyroxine (1:300) • PBS with 4.75% 2-propanol • BSA 0.1 μM • Sodium Chloride in different concentrations

Assay [2] relates to anti-thyroxine. Kind of assay: Rate of the reaction between F-thyroxine and anti-thyroxine, with and without serum (Example 6). The class given is binding. The settings on record: experiments 6-3 through 6-7: serum, increasing sodium benzoate up to 1.0 M. On the procedure: as §1
(§2) • Fluorescein-Thyroxine (1 nM) • Anti-Thyroxine (1:300 dilution) • PBS with 10% 2-propanol • Benzoate in different concentrations • At t=0 s antibody was pipetted into the cuvette. • A 3 ml cuvette was used, the total volume in the cuvette was 2 ml. A small magnetic stirrer was used for mixing
(§3) In example 6, the reactions between F-Thyroxine and Anti-Thyroxine, which were carried out in the presence of serum under different reaction conditions, are compared (FIG. 4). There are seven different amounts of sodium benzoate, between 0 and 1.0 Molar in the cuvette. The reaction was performed in a phosphate buffered saline buffer containing 10% 2-propanol. The table in FIG. 4 lists the two important parameters.

The next assay concerns anti-thyroxine sera. As to the kind of experiment: Effect of additive on specific binding of F-thyroxine to anti-thyroxine in the presence of human sera (Example 4). The settings on record: Buffer 2 (1.0 M sodium benzoate), 50 μl human sera, 20 or 50 μl anti-sera. As for the experimental part:
(§4) With reference to FIG. 2, experiments were performed to determine the effects of an additive on specific and non-specific binding. The additive used in the present example was sodium benzoate. The materials described in Example 1 and the measurement methodology described in Example 2 were used. In particular, 50 μl of human sera was added to 3000 μl of Buffer 2 or PBS at pH 7.5 (no additive control) and thoroughly mixed by pipetting for 1 to 10 seconds. To this was added 0 μl of unlabeled thyroxine and 0 μl, 20 μl or 50 μl of anti-sera stock solution. The mixture was thoroughly mixed by pipetting for 1 to 10 seconds. Then, 5 μl of the fluorescein-labeled thyroxine stock solution was added. This was followed by mixing for 1 to 10 seconds by pipetting. Then, d(V−H)/dt measurements were made versus time for between 10 and 600 seconds. This protocol was followed for Experiments 6-9 in Table 2.

For another assay, the system named is human sera. As to the kind of experiment: Effect of additive on non-specific binding of F-thyroxine in human sera (Example 4). The settings on record: Buffer 2 (1.0 M sodium benzoate), 50 μl human sera. On the procedure:
as §4

For assay [3], the system named is serum components. Kind of assay: Non-specific binding of Rhodamine-Thyroxine to serum components (Example 17). To be noted: Rox-Thyroxine 1.5 nM, serum 1:500, PBS with 10% 2-propanol, sodium benzoate in different concentrations. On the procedure:
(§5) The serum was diluted 1:500 in PBS/10% 2-propanol The buffer and stock solutions, as well as the measurement methodology described in Example 5 were used.
(§6) • Rox-Thyroxine, 1.5 nM • Anti-Thyroxine (1:300) • PBS with 10% 2-propanol • Serum 1:500 • Sodium benzoate in different concentrations

Assay [4] concerns anti-thyroxine. As to the kind of experiment: Velocity of the reaction between Rhodamine-Thyroxine and anti-thyroxine in serum (Example 17). The settings on record: Rox-Thyroxine 1.5 nM, serum 1:500, PBS with 10% 2-propanol, increasing sodium benzoate. The class given is binding. On the procedure:
as §5, §6

In assay [5] the test system is anti-thyroxine. Kind of assay: Velocity of the reaction between F-thyroxine and anti-thyroxine in the absence of non-specific binding components (Example 7). The settings on record: sodium benzoate increased to 1.0 molar; no serum or BSA; PBS with 5% 2-propanol, F-thyroxine 1 nM. On the procedure:
as §1
• Fluorescein-thyroxine, 1 nM • Anti-Thyroxine (1:300) • PBS with 5% 2-propanol • Sodium Benzoate in different concentrations

The test system of assay [6] is serum components. As to the kind of experiment: Initial non-specific binding between F-thyroxine and serum components (Example 6). The settings on record: experiments 6-3 through 6-7: serum, increasing sodium benzoate up to 1.0 M; reduced from 195. As for the experimental part: as §1, §2, §3
The subject of assay [7] is anti-thyroxine. As to the kind of experiment: Kinetic curve, rhodamine-labeled thyroxine/anti-thyroxine system in 0.5 M sodium benzoate with 5% isopropanol (Example 5). The class given is binding. As for the experimental part: The protocol used is described below. The additive was sodium benzoate combined with an organic solvent (5% isopropanol). • 1. Use clean glassware, washed with isopropanol. • 2. Make a 0.5 M solution of sodium benzoate. • 3. Make a solution of 5% isopropanol in 0.5 M sodium benzoate (i.e., 2.5 ml 2-propanol in 47.5 mL 0.5 M aqueous sodium benzoate). This will be named BUFFER. • 4. […] 600 μl Buffer added to 1 mL curvette. The absorbance spectrum is measured using a UV-VIS spectrophotometer, 400 nm to 800 nm. This spectrum is used to define the absorbance of the background as zero and to control that it is actually zero. • 6. […] Measure the absorbance UV-VIS, 400 nm to 800 nm. […] Using a rotating polarometer with a 75 watt Xenon short-arc lamp. The rotating polarizer has three channels: Polarization (P), Total Intensity (V+H), and V−H. • 8. […] Measure P, V+H and V−H after short mixing and 30 second equilibration. […] Add 10 μl. Antibody solution (anti-thyroxine in PBS, dilution unknown, probably 5 mg in 1000 μl PBS and further diluted 1:10 in PBS). New volume is 3017 μl. Measure P, V+H and V−H after short mixing.

Assay [8] relates to polyclonal anti-thyroxine sera. Kind of assay: Fluorescence polarization kinetic measurement, F-thyroxine/anti-thyroxine system (Example 3). The class given is binding. The settings on record: Experiment 5: unlabeled thyroxine 0-20 μl, antiserum 20 μl, Buffer 1 (0.5 M sodium benzoate). On the procedure: An initial stock solution of anti-thyroxine sera was prepared. In particular, 1 ml of polyclonal anti-thyroxine sera containing 10 mg/ml IgG (Sigma) was diluted 1:5 in PBS buffer, pH 7.5. The final concentration of IgG in the stock solution was about 2 mg/ml.
An initial stock solution of fluorescein-labeled analyte (F-thyroxine) was prepared. Fluorescein-labeled thyroxine at 1248 g/mol in a lyophilized form was obtained from emp Biotech GmbH. First, 5 mg (4×10^−6 moles) of F-thyroxine was diluted to 10 ml in PBS to get a 4.1×10^−4 M solution of F-thyroxine. This solution was then further diluted 100-fold in PBS. The final concentration of F-thyroxine in the stock solution was about 4.1×10^−6 M.
The following is a protocol useful for performing a fluorescein polarization assay of the present invention. All steps are performed at ambient temperature. […] Pipette the mixture formed in step 5 up and down for 1 to 10 seconds and begin measuring polarization (P), Polarized Fluorescence Intensity Difference (V−H) or quenching (V+H total intensity) versus time for between 10 and 7200 seconds after end of mixing in a direct readout polarometer or between 0.1 and 7200 seconds after end of mixing with a stopped-flow polarometer. • 7. […] Against a standard curve, an unknown amount of thyroxine can be measured by comparison of initial rate measurement (speed of reaction) of unknown with the standard curve. […]
For orientation: Polarisation of emitted light reports the rotation of a fluorescent probe.

Setting [9] is: PBS with 5% 2-propanol, F-thyroxine 1 nM.
Where [10] appears, read: PBS with 4.75% 2-propanol, F-thyroxine 1.5 nM.
The mark [11] stands for this setting: PBS with 4.75% 2-propanol, F-thyroxine 1 nM.

For the molecule `Cc1ccc(S(=O)(=O)O)cc1.[Na]` [sodium p-tolulene sulfonate, sodium p-toluene sulfonate], the “rate of the antibody reaction” value with anti-thyroxine [1] (setting [9]) is listed as “substantially slowed”.
In the case of `O=C([O-])c1ccccc1.[Na+]` [sodium benzoate], the “reaction rate relative to its value at zero additive” value in the assay with anti-thyroxine [2] is on record as “about 30%”. Also, in the assay on anti-thyroxine [2] (PBS with 10% 2-propanol), the “rate of change of P at t=5 s” value is on record as 3.2 mP/s. The “effect on specific binding” value with anti-thyroxine sera is “does not inhibit specific binding”. Further, in the assay with human sera, the “effect on non-specific binding” value is reported as “inhibits non-specific binding”. Besides, the “non-specific binding due to the presence of serum components” value in the assay with serum components [3] is reported as “substantially reduced”. In addition, the “rate of the reaction” value with anti-thyroxine [4] was “substantially slowed”. The “rate of the antibody reaction” value in the assay on anti-thyroxine [1] (setting [9]) was “substantially slowed”. For the same molecule, the “reaction rate between F-thyroxine and antibody” value with anti-thyroxine [5] is given as “slowed dramatically”. Besides, the “polarization value before the addition of antibody (t=0)” value with serum components [6] amounted to 100 mP.
Take `O=C([O-])c1ccccc1O.[Na+]` [sodium salicylate]: the “rate of the antibody reaction” value in the assay on anti-thyroxine [1] (setting [10]) is reported as “substantially slowed”.
In the case of “5-carboxy-X-rhodamine-thyroxine [ROX-T4]”, the “values of P, V−H and V+H over the 600 second time course” value in the assay on anti-thyroxine [7] (0.5 M sodium benzoate, 5% isopropanol) is “increase”. In addition, the “V − H” value with anti-thyroxine [7] (10 s after antibody) was found to be 660; in the assay with anti-thyroxine [7] (13 s after antibody) it was 860; with anti-thyroxine [7] (18 s after antibody) it was 936; with anti-thyroxine [7] (20 s after antibody), 1006; with anti-thyroxine [7] (26 s after antibody), 1130; in the assay on anti-thyroxine [7] (30 s after antibody), 1175. The “V − H” value in the assay on anti-thyroxine [7] (33 s after antibody) came to 1200; with anti-thyroxine [7] (44 s after antibody), 1259; in the assay with anti-thyroxine [7] (49 s after antibody) it was 1280; with anti-thyroxine [7] (53 s after antibody), 1290; in the assay with anti-thyroxine [7] (78 s after antibody), 1345; with anti-thyroxine [7] (600 s after antibody), 1340. For the same molecule, the “V − H” value in the assay with anti-thyroxine [7] (before antibody, time 0 s) is listed as 178. Also, the “P (mP)” value in the assay with anti-thyroxine [7] (62 s after antibody) is 392 mP; with anti-thyroxine [7] (70 s after antibody), 395 mP; in the assay with anti-thyroxine [7] (95 s after antibody), 397 mP; in the assay on anti-thyroxine [7] (600 s after antibody), 398 mP; in the assay with anti-thyroxine [7] (before antibody, time 0 s) it was 75 mP. Besides, the “V + H” value with anti-thyroxine [7] (83 s after antibody) was determined as 3375; in the assay on anti-thyroxine [7] (600 s after antibody), 3320; in the assay on anti-thyroxine [7] (before antibody, time 0 s), 2291.
For `O=C([O-])c1ccccc1.[K+]` [potassium benzoate], the “rate of the antibody reaction” value in the assay with anti-thyroxine [1] (setting [11]) is “substantially slowed”.
`N=C(N)N` [guanidine hydrochloride]: the “rate of the antibody reaction” value in the assay with anti-thyroxine [1] (setting [9]) is recorded as “substantially slowed”.
For the molecule `O=C([O-])C(Cl)Cl.[Na+]` [sodium dichloroacetate], the “rate of the antibody reaction” value with anti-thyroxine [1] (setting [11]) is listed as “substantially slowed”.
On the same count and under the same terms, the entry for `O=C([O-])CCl.[Na+]` [sodium chloroacetate] is “substantially slowed”.
Take `N[C@@H](Cc1cc(I)c(Oc2cc(I)c(O)c(I)c2)c(I)c1)C(=O)O` [thyroxine]: the “competitive inhibition of the binding of F-thyroxine to its specific antibody” value in [8] is on record as “inhibition of the binding of F-thyroxine to its specific antibody by unlabeled thyroxine occurred”.
On to `[Cl-].[Na+]` [sodium chloride], for which, in the assay on anti-thyroxine [1] (setting [10]), the “rate of the antibody reaction” value is “not substantially slowed”.
Same read-out and setting: the entry for `O=C1CCC(=O)N1O` [N-hydroxysuccinimide] is “substantially slowed”.
